Assay results as given in patent publication US20070014721A1, “Hydrazide conjugates as imaging agents” (priority 2005, published 2007).

Key:
[1] = tested on: Rabbit plaque aorta or normal rabbit aorta; assay: Ex vivo blood vessel binding assay; design: species or system New Zealand white rabbits; conditions: radiolabeled compound incubated with rabbit aorta (0.5 cm) in phosphate buffered saline for 2 hours at 37° C; bound compound as percentage of the incubated compound
Text: Normal aorta was obtained from New Zealand white rabbits. Aorta bearing atherosclerotic plaque was obtained from New Zealand white rabbits balloon stripped along the abdominal aorta and placed on a high fat diet (0.5% cholesterol) for 16-22 weeks. Vascular injury was produced with a 3-F Fogarty catheter along the abdominal aorta and left iliofemoral artery. This procedure generates an accelerated complex lesion development with a lipid rich core covered by a fibrous cap in rabbits. Rabbit plaque aorta or normal rabbit aorta (0.5 cm) was incubated with 10 nCi of ^14C labeled compound or 1.5 μCi of ^99m Tc labeled compound or 0.135 μCi of ^111In labeled compound or 0.135 μCi of ^68Ga labeled compound or 0.135 µCi of ^153Gd labeled compound diluted in phosphate buffered saline (450 μL) for 2 hours at 37° C. The supernatant from this sample was collected and analyzed by HPLC to determine compound stability in presence of blood vessels. The blood vessel tissue was then washed with phosphate buffered saline (3×10 mL). Phosphate buffered saline (10 ml) was added to the tissue and incubated at 37° C. for 1 hour. The tissue was then washed with phosphate buffered saline (3×10 mL). The washed tissue was oxidized in a tissue oxidizer for C-14 labeled compounds. The counts in the oxidized tissue were determined on a beta counter. Blood vessels incubated with ^99m Tc labeled compound or ^111In labeled compound or ^68Ga labeled compound or ^153Gd labeled compound were counted on a gamma counter. The amount of compound bound to the tissue was determined as a percentage of the incubated compound. This was calculated using the following formula: [formula]

[2] = tested on: aorta of apolipoprotein E (apoE) knockout mouse; assay: In vivo ApoE mouse aorta uptake study; conditions: 60 min postinjection; for Aorta (% ID/g): ApoE mouse on high-fat diet 37-41 weeks, tail vein bolus; for Aorta/Blood Ratio: ApoE mouse, calculated from the % ID/g data
Description: Mice were fed a high-fat diet to accelerate plaque formation and compounds were tested in the mice between 37-41 weeks on diet. Test compounds were radiolabeled (^14C, ^99mTc, or ^111In as described above) and administered at 0.02-4.0 mCi/kg to anesthetized mice in a single, bolus injection via the tail vein. Blood samples were collected via the tail between 0-30 minutes postinjection for pharmacokinetic analysis and mice were euthanized by CO2 at 60 minutes for tissue harvesting. The aorta were flushed with saline through the left ventricle exiting via the femoral vein. The aorta were then removed from the heart to the renal bifurcation and additional tissue samples collected (blood, muscle, liver, kidney, heart, lung, spleen and innominate artery). All samples were weighed and assayed for radioactivity. Tissue uptake is expressed as percent of injected dose per gram of tissue (% ID/g). The aorta to blood ratios were calculated from the % ID/g data.

Molecule | Tissue Binding % [1] [%] | Aorta (% ID/g) [2] [% ID/g] | Aorta/Blood Ratio [2]
H-d-Cys(Bzl)-Ambh-DTPA [Example 179] | 9.67 |  | 
H-d-Cha-Inph-DTPA [Example 197] | 6.97 |  | 
H-d-Leu-NHNH-DTPA [Example 189] | 1.08 | 3.3 | 1.0
H-d-Phe(4-NHBz)-Ambh-DTPA [Example 205] | 8.83 | 7.8 | 6.3
CC(C)CC(NC(=O)OC(C)(C)C)C(=O)NNC(=O)NN (stereo not drawn) [Example 124, Boc-d-Leu-NHNH—CO—NHNH2] | 5.85 |  | 
Boc-d-Aphe(ε-Leu(Boc))-Ahxh-H [Example 151] | 26.92 | 9.0 | 2.9
H-Ahxh-d-Leu-Boc [Example 137] | 1.43 |  | 
Boc-d-Glu(tBu)-Ahxh-H [Example 132] | 2.47 |  | 
H-d-Bip-Ahxh-DTPA [Example 175] | 32.09 | 7.9 | 5.9
H-d-Stya-Ambh-DTPA [Example 187] | 13.66 | 6.1 | 5.4
H-d-Tyr(Et)-Apah-DTPA [Example 169] | 13.53 | 6.1 | 5.1
H-d-Leu-XInph-DTPA [Example 201] | 2.94 | 4.3 | 2.1
N,N-Me2-d-Leu-Ahxh-H [Example 125] | 4.63 |  | 
H-d-Hphe-Ambh-Ahx-DTPA [Example 211] | 18.09 | 9.9 | 3.9
H-d-Cys(Bzl)-Apph-DTPA [Example 181] | 13.91 | 9.8 | 7.3
H-d-Cys(Bzl)-Apah-DTPA [Example 173] | 13.82 | 9.5 | 5.8
H-d-Hphe-Apph-DTPA [Example 180] | 18.24 | 8.3 | 13.2
H-d-Cha-Ambh-DTPA [Example 196] | 8.25 | 9.8 | 7.8
H-d-Cha-Ahxh-DTPA [Example 194] | 16.33 | 6.8 | 3.3

Molecule | Tissue Binding % [1] [%] | Aorta (% ID/g) [2] [% ID/g] | Aorta/Blood Ratio [2]
Boc-d-Leu-NHNH2 [Example 122] | 13.99 | 4.0 | 3.0
H-d-Phe-NHNH-DTPA [Example 192] | 1.78 | 2.3 | 1.9
H-d-Pro-Ahxh-DTPA [Example 165] | 5.51 |  | 
Boc-d-Lys(e-Leu(Boc))-Ahxh-H [Example 136] | 9.15 |  | 
H-d-Nle-Ahxh-DTPA [Example 200] | 2.72 | 5.1 | 2.2
H-d-Val-Ambh-DTPA [Example 198] | 5.26 |  | 
H-d-H2phe-Ambh-DTPA [Example 185] | 10.64 | 11.2 | 8.1
H-d-Hphe-mAmbh-DTPA [Example 210] | 13.13 | 10.5 | 11.2
Boc-d-Phe-Ahxh-H [Example 129] | 14.42 | 8.1 | 3.3
H-d-Phe(CF3)-Apah-DTPA [Example 177] | 13.53 | 7.9 | 8.7
H-Aic-Ambh-DTPA [Example 207] | 5.26 | 3.8 | 2.1
Boc-Leu-PABA-CO-d-Leu-Ahxh-H [Example 127] | 24.22 |  | 
H-d-Ser(Bzl)-Ahxh-DTPA [Example 166] | 5.91 | 4.0 | 3.3
H-d-Leu-Apah-DOTA [Example 160] | 9.59 |  | 
H-d-Trp-Apph-ETPA [Example 184] | 13.08 | 12.5 | 11.3
Boc-cLeu-Ahxh-H [Example 133] | 9.10 | 5.7 | 2.9
H-d-Hphe-Ahxh-DTPA [Example 168] | 9.17 | 7.5 | 5.8
Boc-d-Ala-Ahxh-H [Example 134] | 5.72 |  | 
Boc-d-Leu-N(Me)-NH-Ahx-H [Example 141] | 0.75 |  | 

Molecule | Tissue Binding % [1] [%] | Aorta (% ID/g) [2] [% ID/g] | Aorta/Blood Ratio [2]
Boc-Aib-Ahxh-H [Example 130] | 3.33 |  | 
Boc-d-Leu-Ambh-H [Example 138] | 21.11 | 8.6 | 6.7
Boc-L-d-Leu-Ahxh-H [Example 150] | 5.36 | 2.1 | 1.2
H-Pro-Ahxh-DTPA [Example 163] | 2.61 | 6.5 | 0.9
H-d-Hphe-Pheh-AEEA-DTPA [Example 213] | 26.68 | 8.4 | 9.8
H-cLeu-Ahxh-DTPA [Example 188] | 3.91 | 2.8 | 2.2
H-cLeu-Ambh-DTPA [Example 195] | 9.52 | 4.6 | 1.9
H-d-Phe-Bbh-DTPA [Example 209] | 20.9 | 10.8 | 9.6
H-d-Cys(Bzl)-Ahxh-DTPA [Example 167] | 9.74 | 8.0 | 4.9
H-d-Tyr(Bzl)-Ambh-DTPA [Example 206] | 19.62 | 5.8 | 3.2
H-d-Phe(F5)-Ambh-DTPA [Example 204] | 16.11 | 6.7 | 5.3
H-d-His-Ahxh-DTPA [Example 172] | 4.22 | 3.7 | 1.2
Boc-d-Leu-Apah-H [Example 121] | 30.55 | 9.3 | 4.6
H-d-Phe-Ambh-DTPA [Example 161] | 7.75 | 8.7 | 4.9
Boc-d-Leu-NHNH—CO-(PEG)4-NH2 [Example 123] | 9.74 |  | 
Boc-d-Arg(Pmc)-Ahxh-H [Example 131] | 5.19 |  | 
H-d-Phe-Inph-DTPA [Example 199] | 3.36 |  | 
Boc-βLeu-Ahxh-H [Example 135] | 2.30 |  | 
